Source: ChEMBL document CHEMBL4251597, “Discovery and evolution of aloperine derivatives as a new family of HCV inhibitors with novel mechanism” (Eur J Med Chem, 2018)
The source made the active and inactive calls. The rule behind the calls is not given here.

Experiments:
[1] = test system: Hepatitis C virus; test: Antiviral activity against HCV J6/JFH/JC-1 infected in human Huh7.5 cells assessed as inhibition of viral RNA replication after 72 hrs by qRT-PCR method; type: functional, organism-based, Hepacivirus hominis; conditions: J6/JFH/JC-1, Huh7.5, 72 h
[2] = Cytotoxicity against human Huh7.5 cells after 72 hrs by MTT assay; type: cell-based
[3] = Selectivity index, ratio of CC50 for human Huh7.5 cells to EC50 for HCV J6/JFH/JC-1; type: toxicity; conditions: read-out: Ratio CC50/EC50
[4] = MRT in mouse at 25 mg/kg, po after 0.25 to 6 hrs; type: ADME, organism-based; conditions: in vivo
[5] = Half life in mouse at 25 mg/kg, po after 0.25 to 6 hrs; type: ADME, organism-based; conditions: in vivo
[6] = AUC (0 to t) in mouse at 25 mg/kg, po after 0.25 to 6 hrs; type: ADME, organism-based; design: time upper 6 hr, time lower 0.25 hr, dose 25 mg/kg, route oral; conditions: in vivo
[7] = Tmax in mouse at 25 mg/kg, po after 0.25 to 6 hrs; type: ADME, organism-based; conditions: in vivo
[8] = Cmax in mouse at 25 mg/kg, po after 0.25 to 6 hrs; type: ADME, organism-based; design: dose 25 mg/kg, route oral; conditions: in vivo
[9] = Acute toxicity in po dosed Kunming mouse measured for 7 days; type: organism-based; conditions: in vivo
[10] = test system: Hepatitis C virus; test: Antiviral activity against HCV J6/JFH/JC-1 infected in human Huh7.5 cells assessed as inhibition of NS3/4A D168V mutant levels at 0.01 to 1 uM treated with fresh media containing compound every 2 days by Western blot method; type: functional, organism-based; conditions: Hepacivirus hominis
[11] = test system: Hepatitis C virus; test: Antiviral activity against HCV J6/JFH/JC-1 infected in human Huh7.5 cells harboring NS3/4A D168V mutant assessed as inhibition of viral core protein levels at 0.01 to 1 uM treated with fresh media containing compound every 2 days by Western blot method; type: functional, organism-based; conditions: Hepacivirus hominis
[12] = test system: Hepatitis C virus; test: Antiviral activity against HCV infected in human GS4.3 cells assessed as inhibition of viral core protein levels at 0.15 uM treated with fresh media containing compound every 2 days measured after 6 days by Western blot method; type: functional, organism-based; conditions: Hepacivirus hominis
[13] = test system: Hepatitis C virus; test: Antiviral activity against HCV infected in human GS4.3 cells assessed as inhibition of NS3/4A levels at 0.15 uM treated with fresh media containing compound every 2 days measured after 6 days by Western blot method; type: functional, organism-based; conditions: Hepacivirus hominis

| SMILES | EC50 [1] | CC50 at 72 h [2] | selectivity ratio [3] | also measured |
| --- | --- | --- | --- | --- |
| COC(=O)c1ccc(C(=O)N2CCCC3=C[C@H]4C[C@H](CN5CCCC[C@H]45)[C@@H]32)cc1 | 11.6 µM | 271 µM | 23.4 | – |
| O=C1c2ccccc2C(=O)N1CCS(=O)(=O)N1CCCC2=C[C@H]3C[C@H](CN4CCCC[C@H]34)[C@@H]21 | 68.6 µM | > 500 µM | > 7.29 | – |
| CC(=O)Nc1ccc(S(=O)(=O)N2CCCC3=C[C@H]4C[C@H](CN5CCCC[C@H]45)[C@@H]32)cc1 | 54.7 µM | 309 µM | 5.64 | – |
| CC(=O)Nc1nc(C)c(S(=O)(=O)N2CCCC3=C[C@H]4C[C@H](CN5CCCC[C@H]45)[C@@H]32)s1 | 12.4 µM | 182 µM | 14.7 | – |
| O=C(O)c1ccc(S(=O)(=O)N2CCCC3=C[C@H]4C[C@H](CN5CCCC[C@H]45)[C@@H]32)cc1 | > 167 µM | > 500 µM | – | – |
| CS(=O)(=O)c1ccc(S(=O)(=O)N2CCCC3=C[C@H]4C[C@H](CN5CCCC[C@H]45)[C@@H]32)cc1 | 18.7 µM | 186 µM | 9.97 | – |
| COc1cc(C(=O)N2CCCC3=C[C@H]4C[C@H](CN5CCCC[C@H]45)[C@@H]32)cc(OC)c1OC | 28.3 µM | 290 µM | 10.2 | – |
| C1=C2CCCN[C@H]2[C@@H]2C[C@H]1[C@H]1CCCCN1C2 | 4.32 µM | 235 µM | 54.5 | – |
| C1=C2CCCN(Cc3ccncc3)[C@H]2[C@@H]2C[C@H]1[C@H]1CCCCN1C2 | 97.9 µM | > 500 µM | > 5.11 | – |
| O=C(O)c1ccccc1S(=O)(=O)N1CCCC2=C[C@H]3C[C@H](CN4CCCC[C@H]34)[C@@H]21 | 46.4 µM | > 500 µM | > 10.8 | – |
| COC(=O)c1ccc(S(=O)(=O)N2CCCC3=C[C@H]4C[C@H](CN5CCCC[C@H]45)[C@@H]32)cc1 | 80.6 µM | 283 µM | 3.51 | – |
| NCCS(=O)(=O)N1CCCC2=C[C@H]3C[C@H](CN4CCCC[C@H]34)[C@@H]21 | 2.72 µM | 264 µM | 97.2 | MRT [4]: 5.96 h; half-life [5]: 612 min; AUC(0-t) [6]: 7.78 µM·h; Tmax [7]: 70.2 min; Cmax [8]: 1450 nM; LD50 at 168 h [9]: 750 mg/kg |
| O=C(O)c1ccc(C(=O)N2CCCC3=C[C@H]4C[C@H](CN5CCCC[C@H]45)[C@@H]32)cc1 | 73.7 µM | > 500 µM | > 6.78 | – |
| COc1ccc2c(O[C@@H]3C[C@H]4C(=O)N[C@]5(C(=O)NS(=O)(=O)C6CC6)C[C@H]5/C=C/CCCCN(C)C(=O)[C@@H]4C3)cc(-c3nc(C(C)C)cs3)nc2c1C | – | – | – | inhibition [10]: inactive; inhibition [11]: inactive |
| COc1ccc(C(=O)N2CCCC3=C[C@H]4C[C@H](CN5CCCC[C@H]45)[C@@H]32)cc1 | 62.5 µM | > 500 µM | > 8 | – |
| COC(=O)N[C@H](C(=O)N1CCC[C@H]1c1ncc(-c2ccc(-c3ccc(-c4cnc([C@@H]5CCCN5C(=O)[C@@H](NC(=O)OC)C(C)C)[nH]4)cc3)cc2)[nH]1)C(C)C | – | – | – | inhibition [12]: Active; inhibition [13]: Active |
| O=S(=O)(c1ccc2c(c1)OCCO2)N1CCCC2=C[C@H]3C[C@H](CN4CCCC[C@H]34)[C@@H]21 | 23.5 µM | > 500 µM | > 21.3 | – |

Continued by falling EC50 [1], values first:

| EC50 [1] | SMILES | CC50 at 72 h [2] | selectivity ratio [3] | also measured |
| --- | --- | --- | --- | --- |
| 11.4 µM | O=S(=O)(c1ccncc1)N1CCCC2=C[C@H]3C[C@H](CN4CCCC[C@H]34)[C@@H]21 | 371 µM | 32.6 | – |
| 10.7 µM | Nc1ccc(S(=O)(=O)N2CCCC3=C[C@H]4C[C@H](CN5CCCC[C@H]45)[C@@H]32)cc1 | 288 µM | 26.9 | – |
| 8.65 µM | O=S(=O)(c1ccc2c(c1)CCO2)N1CCCC2=C[C@H]3C[C@H](CN4CCCC[C@H]34)[C@@H]21 | 217 µM | 25.1 | – |
| 8.2 µM | COC(=O)c1ccccc1S(=O)(=O)N1CCCC2=C[C@H]3C[C@H](CN4CCCC[C@H]34)[C@@H]21 | 269 µM | 32.8 | – |
| 7.35 µM | O=S(=O)(c1cccc2cccnc12)N1CCCC2=C[C@H]3C[C@H](CN4CCCC[C@H]34)[C@@H]21 | 249 µM | 33.8 | – |
| 6.78 µM | COc1ccccc1CN1CCCC2=C[C@H]3C[C@H](CN4CCCC[C@H]34)[C@@H]21 | 69.3 µM | 10.2 | – |
| 6.39 µM | COc1ccc(S(=O)(=O)N2CCCC3=C[C@H]4C[C@H](CN5CCCC[C@H]45)[C@@H]32)cc1OC | 215 µM | 33.6 | – |
| 6.03 µM | Cc1nc(N)sc1S(=O)(=O)N1CCCC2=C[C@H]3C[C@H](CN4CCCC[C@H]34)[C@@H]21 | 209 µM | 34.7 | – |
| 6.01 µM | COc1ccc(S(=O)(=O)N2CCCC3=C[C@H]4C[C@H](CN5CCCC[C@H]45)[C@@H]32)cc1 | 102 µM | 16.9 | – |
| 5.57 µM | CC(=O)c1ccc(S(=O)(=O)N2CCCC3=C[C@H]4C[C@H](CN5CCCC[C@H]45)[C@@H]32)cc1 | 234 µM | 42.1 | – |
| 5.5 µM | O=S(=O)(c1cccc2nsnc12)N1CCCC2=C[C@H]3C[C@H](CN4CCCC[C@H]34)[C@@H]21 | 314 µM | 57.2 | – |
| 4.89 µM | COc1ccc(S(=O)(=O)N2CCCC3=C[C@H]4C[C@H](CN5CCCC[C@H]45)[C@@H]32)cc1C | 73.2 µM | 15 | – |
| 3.56 µM | O=[N+]([O-])c1ccc(CN2CCCC3=C[C@H]4C[C@H](CN5CCCC[C@H]45)[C@@H]32)cc1 | 94.4 µM | 26.5 | – |
| 3.4 µM | N#Cc1ccc(S(=O)(=O)N2CCCC3=C[C@H]4C[C@H](CN5CCCC[C@H]45)[C@@H]32)cc1 | 265 µM | 78 | MRT [4]: 1.82 h; half-life [5]: 118 min; AUC(0-t) [6]: 0.77 µM·h; Tmax [7]: 19.8 min; Cmax [8]: 410 nM |
| 3.32 µM | N#Cc1ccccc1S(=O)(=O)N1CCCC2=C[C@H]3C[C@H](CN4CCCC[C@H]34)[C@@H]21 | 256 µM | 77.1 | – |
| 1.95 µM | N#Cc1ccccc1CN1CCCC2=C[C@H]3C[C@H](CN4CCCC[C@H]34)[C@@H]21 | 18.8 µM | 9.64 | – |
| 1.81 µM | CC(C)Oc1ccc(S(=O)(=O)N2CCCC3=C[C@H]4C[C@H](CN5CCCC[C@H]45)[C@@H]32)cc1 | 34.8 µM | 19.2 | – |
| 1.21 µM | COc1ccc(Cl)cc1S(=O)(=O)N1CCCC2=C[C@H]3C[C@H](CN4CCCC[C@H]34)[C@@H]21 | 92.9 µM | 76.8 | – |
| 0.96 µM | COc1ccc(CN2CCCC3=C[C@H]4C[C@H](CN5CCCC[C@H]45)[C@@H]32)cc1 | 83.1 µM | 86.6 | – |
